The subject of one data set is SK-HEP-1 cells. As to the kind of experiment: Inhibition of SK-HEP-1 cell proliferation (CellTiter-Glo). In kind it is cell-based. The note with it: Homo sapiens, SK-HEP1, 72 hours. How it is done:
5. Experiment on the Inhibition of SK-HEP-1 Cell Proliferation
In this experiment, the inhibitory effect of the compounds on SK-HEP-1 cell proliferation was tested by a CellTiter-Glo method, and the half maximal inhibitory concentration (IC50) of the compounds on the activity of cell proliferation was determined.
1) A 96-well cell culture plate was seeded with 50˜100 μL of SK-HEP-1 cell suspension at a density of 1-5×10^4 cells/ml. The culture plate was incubated in an incubator for 16˜24 hours (37° C., 5% CO2).
(§1) 2) Different concentrations of the test compound in a gradient dilution were added to the cells in the culture plate. The culture plate was incubated in an incubator for 72 hours (37° C., 5% CO2).
(§2) 3) 50˜100 μL of CellTiter-Glo reagent were added to each well. Then, the culture plate was shaken or left to stand for 5˜30 minutes at room temperature.
(§3) 4) The chemiluminescence signal values of each plate were determined by a microplate reader.
(§4) 5) The inhibition rates were calculated according to the chemiluminescence signal values.
The IC50 of the compound was obtained by curve fitting according to the inhibition rates at different concentrations, and the cell activity of the specific Example compounds is shown in Table 2.

In the next data set the test system is Hep 3B cells. Nature of the data set: Inhibition of Hep 3B cell proliferation (CellTiter-Glo). In kind it is cell-based. The note with it: Homo sapiens, Hep3B, 72 hours. How it is done:
3. Experiment on the Inhibition of Hep 3B Cell Proliferation
In this experiment, the inhibitory effect of the compounds on Hep 3B cell proliferation was tested by a CellTiter-Glo method, and the half maximal inhibitory concentration (IC50) of the compounds on the activity of cell proliferation was determined.
1) A 96-well cell culture plate was seeded with 50˜100 μL of Hep 3B cell suspension at a density of 1-5×10^4 cells/ml. The culture plate was incubated in an incubator for 16-24 hours (37° C., 5% CO2).
as §1
3) 50-100 μL of CellTiter-Glo reagent were added to each well. Then, the culture plate was shaken or left to stand for 5˜30 minutes at room temperature.
as §3, §4
6) The IC50 of the compound was obtained by curve fitting according to the inhibition rates at different concentrations, and the cell activity of the specific example compounds is shown in Table 2.

The nature of data set [1]: Pharmacokinetic (PK) analysis in rats. It counts as in vivo, Sprague Dawley (SD) rats. The note with it: SD rats, single intragastric administration, 5 mg/kg, plasma; for AUC(0-t) / AUC(0-inf) / half-life / MRT / Cmax: Sprague-Dawley, rat, po; for AUC(0-t): read-out: Area Under Curve AUC0-t; for AUC(0-inf): read-out: Area Under Curve AUC0-∞; for half-life: read-out: Half-Time t1/2 (converted); for MRT: read-out: Mean Residence Time MRT; for Cmax: read-out: Plasma Concentration Cmax. How it is done:
6. Pharmacokinetic (PK) Analysis in Rats
Mode of administration: a single intragastric administration.
Formulation: 0.5% CMC and 1% Tween 80, ultrasonic dissolution.
Sampling points: 0.5, 1, 2, 4, 6, 8 and 24 hours after administration.
1. 1.0 ml of intravenous blood was collected and placed in a K2EDTA test tube.
The blood was centrifuged at room temperature at the speed of 1000˜3000×g for 5˜20 minutes to isolate the plasma, which was then stored at −80° C. 2. 160 μL of acetonitrile were added to 40 μL of plasma sample for precipitation, and then the mixture was centrifuged at the speed of 500˜2000×g for 5˜20 minutes. 3. 100 μL of treated solution were taken, and the concentration of the test compound was analyzed by LC/MS/MS. The LC/MS/MS analytical instrument was AB Sciex API 4000.
Liquid Chromatography Analysis:
Condition of Liquid chromatography: Shimadzu LC-20AD pump
Chromatographic column: phenomenex Gemiu 5 um C18 50×4.6 mm
Mobile phase: Solution A is 0.1% aqueous formic acid solution, and solution B is acetonitrile
Elution time: 0-3.5 minutes, the eluent was as follows:
Mass spectrometry analysis:
Mass spectrometer setup conditions: positive ion electrospray ionization (ESI) mode.

For a further data set, the system named is HuH-7 cells. Nature of the data set: Inhibition of HuH-7 cell proliferation (CellTiter-Glo). Conditions: Homo sapiens, 72 hours. In kind it is cell-based. How it is done: 4. Experiment on the Inhibition of HuH-7 Cell Proliferation
In this experiment, the inhibitory effect of the compounds on HuH-7 cell proliferation was tested by a CellTiter-Glo method, and the half maximal inhibitory concentration (IC50) of the compounds on the activity of cell proliferation was determined.
1) A 96-well cell culture plate was seeded with 50˜100 μL of HuH-7 cell suspension at a density of 1-5×10^4 cells/ml. The culture plate was incubated in an incubator for 16˜24 hours (37° C., 5% CO2).
as §1, §2, §3, §4
6) The IC50 of the compound was obtained by curve fitting according to the inhibition rates at different concentrations, and the cell activity of the specific Example compounds is shown in Table 2.

Another data set addresses FGFR1 kinase (Homo sapiens (Human), UniProt P11362). Nature of the data set: Enzymologic experiment of FGFR1 (TR-FRET). In kind it is biochemical. The note with it: TR-FRET kinase activity. The protocol: 2. Enzymologic Experiment of FGFR1
In this experiment, the inhibitory effect of the compounds on FGFR1 kinase activity was tested by a fluorescence resonance energy transfer (TR-FRET) method, and the half maximal inhibitory concentration (IC50) of the compounds on the FGFR1 kinase activity was determined.
1) 1˜5 μL of FGFR1 enzymatic solution was added to a 384-well plate, and the final concentration of the enzyme was 0.1˜5 nM.
2) 1˜5 μL of diluted solution in gradient of the compound was added.
3) 1˜5 μL of a substrate mixture containing substrate polypeptide with a final concentration of 5˜50 nM and ATP with a final concentration of 10˜200 μM was added.
4) The mixture was incubated for 0.5-3 hours at room temperature.
5) 10 μL of EDTA and a test solution comprising labeled antibody were added, and the plate was incubated for 1 hour at room temperature.
6) The fluorescence signal values of each plate were determined by a microplate reader at 665 nm.
7) The inhibition rates were calculated according to the fluorescence signal values.
The IC50 of the compound was obtained by curve fitting according to the inhibition rates at different concentrations, and the enzymatic activity of the specific example compounds is shown in Table 1.

The record followed here is patent US11608332B2, “FGFR4 inhibitor and preparation method and use thereof” (Jiangsu Hansoh Pharmaceutical Group Co., Ltd., priority 2016, dated 2023).

The structures appear in SMILES notation.

Chain of FGFR1 kinase (P11362 22-822): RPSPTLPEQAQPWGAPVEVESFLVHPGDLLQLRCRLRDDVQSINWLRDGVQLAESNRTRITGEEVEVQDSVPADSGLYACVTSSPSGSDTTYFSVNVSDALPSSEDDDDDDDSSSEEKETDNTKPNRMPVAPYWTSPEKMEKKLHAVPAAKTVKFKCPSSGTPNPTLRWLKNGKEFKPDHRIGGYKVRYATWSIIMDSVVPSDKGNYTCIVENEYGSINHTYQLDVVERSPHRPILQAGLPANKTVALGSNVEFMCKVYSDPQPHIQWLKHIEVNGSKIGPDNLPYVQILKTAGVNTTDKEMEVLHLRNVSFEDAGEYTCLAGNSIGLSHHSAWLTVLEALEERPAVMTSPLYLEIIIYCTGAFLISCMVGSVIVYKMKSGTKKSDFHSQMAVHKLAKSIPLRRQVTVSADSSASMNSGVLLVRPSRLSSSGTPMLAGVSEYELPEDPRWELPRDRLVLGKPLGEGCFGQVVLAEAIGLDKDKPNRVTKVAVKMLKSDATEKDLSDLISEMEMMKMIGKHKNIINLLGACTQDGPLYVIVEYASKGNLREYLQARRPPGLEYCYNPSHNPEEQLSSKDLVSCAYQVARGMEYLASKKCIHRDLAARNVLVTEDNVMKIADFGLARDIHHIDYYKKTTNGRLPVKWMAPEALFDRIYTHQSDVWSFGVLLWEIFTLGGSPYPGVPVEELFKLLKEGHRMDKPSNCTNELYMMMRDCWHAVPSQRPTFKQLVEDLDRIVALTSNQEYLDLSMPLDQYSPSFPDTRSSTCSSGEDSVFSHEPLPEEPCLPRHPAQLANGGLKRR

Consider `COCCNc1cc(NC(=O)N2CCCc3cc(CN(C)C(=O)[C@@H]4CCCO4)c(C=O)nc32)ncc1C#N` [Example 2, (S)—N-(5-Cyano-4-((2-methoxyethyl)amino)pyridin-2-yl)-7-formyl-6-((N-methyltetrahydrofuran-2-carboxamido)methyl)-3,4-dihydro-1,8-naphthyridin-1(2H)-carb oxamide], for which the IC50 with SK-HEP-1 cells is greater than 10000 nM. Further, the IC50 with Hep 3B cells was 5.3 nM. Further, in data set [1], the Peak Time tmax is 2 h, the AUC(0-t) was found to be 5820 ng·h/mL, the AUC(0-inf) is 5900 ng·h/mL and the half-life is 1.2 h. In data set [1], the MRT came out at 2.5 h and the Cmax is 2200 ng/mL. In the data set with HuH-7 cells, this compound displayed an IC50 of 5.9 nM. Besides, the IC50 against FGFR1 kinase is greater than 10000 nM.

In the data set with SK-HEP-1 cells, `COCCNc1cc(NC(=O)N2CCCc3cc(CN4CC[C@H](OC)C4=O)c(C=O)nc32)ncc1C#N` [Example 46, (S)—N-(5-Cyano-4-((2-methoxyethyl)amino)pyridin-2-yl)-7-formyl-6-((3-methoxy-2-carbonylpyrrolidin-1-yl)methyl)-3,4-dihydro-1,8-naphthyridin-1(2H)-carboxamide] showed an IC50 greater than 10000 nM. Further, in the data set on Hep 3B cells, the IC50 came to 2.3 nM. In data set [1], the Peak Time tmax is 2 h, the AUC(0-t) stood at 10700 ng·h/mL, the AUC(0-inf) turned out to be 11300 ng·h/mL and the half-life was 1 h. Besides, in data set [1], the Cmax worked out at 3290 ng/mL. Also, the IC50 in the data set on HuH-7 cells is 9 nM. The IC50 against FGFR1 kinase is greater than 10000 nM.

With `CO[C@@H]1CCN(c2cc(NC(=O)N3CCCc4cc(CN5CC[C@H](OC)C5=O)c(C=O)nc43)ncc2C#N)C1` [Example 54, N-(5-Cyano-4-((R)-3-methoxypyrrolidin-1-yl)pyridin-2-yl)-7-formyl-6-(((S)-3-methoxy-2-carbonylpyrrolidin-1-yl)methyl)-3,4-dihydro-1,8-naphthyridin-1(2H)-carboxamide], the IC50 with SK-HEP-1 cells is greater than 10000 nM. The same compound came in with an IC50 with Hep 3B cells of 4.4 nM. Besides, in data set [1], the Peak Time tmax came to 2 h, the AUC(0-t) is 7130 ng·h/mL, the AUC(0-inf) worked out at 7870 ng·h/mL and the half-life is 1 h. Further, in data set [1], the MRT amounted to 2.7 h and the Cmax is 2870 ng/mL. This compound displayed an IC50 in the data set on HuH-7 cells of 11.3 nM. The compound also registered an IC50 against FGFR1 kinase greater than 10000 nM.

As to `COCC(=O)N(C)Cc1cc2c(nc1C=O)N(C(=O)Nc1cc(N3CC[C@@H](OC)C3)c(C#N)cn1)CCC2` [Example 107, (R)—N-(5-Cyano-4-(3-methoxypyrrolidin-1-yl)pyridin-2-yl)-7-formyl-6-((2-methoxy-N-methylacetamido)methyl)-3,4-dihydro-1,8-naphthyridin-1(2H)-carboxamide], the IC50 with SK-HEP-1 cells was greater than 10000 nM. This compound also returned an IC50 in the data set with Hep 3B cells of 1.6 nM. Also, in data set [1], the Peak Time tmax worked out at 4 h, the AUC(0-t) turned out to be 2630 ng·h/mL, the AUC(0-inf) came out at 2670 ng·h/mL and the half-life was 1 h. Further, in data set [1], the MRT worked out at 2.8 h and the Cmax amounted to 1940 ng/mL. Also, the IC50 in the data set with HuH-7 cells amounted to 7.3 nM. For the same compound, the IC50 against FGFR1 kinase was greater than 10000 nM.

Take `CO[C@H]1CCN(Cc2cc3c(nc2C=O)N(C(=O)Nc2cc(N[C@@H]4CCOC4)c(C#N)cn2)CCC3)C1=O` [Example 85, N-(5-Cyano-4-(((R)-tetrahydrofuran-3-yl)amino)pyridin-2-yl)-7-formyl-6-(((S)-3-methoxy-2-carbonylpyrrolidin-1-yl)methyl)-3,4-dihydro-1,8-naphthyridin-1(2H)-carboxamide]: in the data set on SK-HEP-1 cells, the IC50 was greater than 10000 nM. This compound also registered an IC50 with Hep 3B cells of 2.6 nM. Besides, in data set [1], the Peak Time tmax stood at 2 h, the AUC(0-t) is 7280 ng·h/mL, the AUC(0-inf) worked out at 7370 ng·h/mL and the half-life is 0.9 h. In data set [1], the MRT turned out to be 3.3 h and the Cmax is 2120 ng/mL. Further, in the data set with HuH-7 cells, half-maximal inhibition (IC50) was put at 4.6 nM. Also, the IC50 against FGFR1 kinase is greater than 10000 nM.

`COCCNc1cc(NC(=O)N2CCCc3cc(CN(C)C(=O)[C@H]4CCCO4)c(C=O)nc32)ncc1C#N` [Example 1, (R)—N-(5-Cyano-4-((2-methoxyethyl)amino)pyridin-2-yl)-7-formyl-6-((N-methyltetrahydrofuran-2-carboxamido)methyl)-3,4-dihydro-1,8-naphthyridin-1(2H)-carb oxamide] yielded an IC50 in the data set on SK-HEP-1 cells greater than 10000 nM. Also, half-maximal inhibition in the data set with Hep 3B cells (IC50) was put at 7.3 nM. In data set [1], the Peak Time tmax worked out at 2 h, the AUC(0-t) was 6800 ng·h/mL, the AUC(0-inf) stood at 6930 ng·h/mL and the half-life is 1.1 h. Moreover, in data set [1], the MRT came out at 3.1 h and the Cmax was 2070 ng/mL. In the data set with HuH-7 cells, the IC50 came out at 11 nM. This compound returned an IC50 at FGFR1 kinase greater than 10000 nM.

With `COCCNc1cc(NC(=O)N2CCCc3cc(CN(C)C(=O)C4CCOC4)c(C=O)nc32)ncc1C#N` (stereo not shown) [Example 5, N-(5-Cyano-4-((2-methoxyethyl)amino)pyridin-2-yl)-7-formyl-6-((N-methyltetrahydrofuran-3-carboxamido)methyl)-3,4-dihydro-1,8-naphthyridin-1(2H)-carboxamide], in the data set on SK-HEP-1 cells, the IC50 is greater than 10000 nM. Moreover, half-maximal inhibition in the data set with Hep 3B cells (IC50) required 9.1 nM. In data set [1], the Peak Time tmax was found to be 2 h, the AUC(0-t) amounted to 13000 ng·h/mL, the AUC(0-inf) was found to be 13400 ng·h/mL and the half-life is 1.2 h. In addition, in data set [1], the MRT was 3.2 h and the Cmax came to 3570 ng/mL. The compound also returned an IC50 with HuH-7 cells of 31.7 nM. Also, on FGFR1 kinase, the IC50 is greater than 10000 nM.

In the data set with SK-HEP-1 cells, `CO[C@H]1CCN(Cc2cc3c(nc2C=O)N(C(=O)Nc2cc(N[C@H]4CCOC4)c(C#N)cn2)CCC3)C1=O` [Example 84, N-(5-Cyano-4-(((S)-tetrahydrofuran-3-yl)amino)pyridin-2-yl)-7-formyl-6-(((S)-3-methoxy-2-carbonylpyrrolidin-1-yl)methyl)-3,4-dihydro-1,8-naphthyridin-1(2H)-carboxamide] returned an IC50 greater than 10000 nM. In the data set with Hep 3B cells, this compound gave an IC50 of 2.4 nM. In data set [1], the Peak Time tmax came out at 2 h, the AUC(0-t) came out at 8860 ng·h/mL, the AUC(0-inf) is 8950 ng·h/mL and the half-life is 0.9 h. In data set [1], the MRT is 3.1 h and the Cmax was found to be 2620 ng/mL. Further, 11 nM corresponded to half-maximal inhibition in the data set on HuH-7 cells (IC50). Besides, the IC50 against FGFR1 kinase is greater than 10000 nM.
